Like-named read-outs stand apart in the source and are kept apart here.
Assays:
[1] = molecular target: T1, GABAAR(α1/β3/γ2) (Homo sapiens, UniProt P14867+P18507+P28472); test: Ligand detection / high-throughput screening by fluorescence change ratio; assay type: binding; conditions: for assignment of hit compound from the screening: third and fourth screening, LOPAC1280, 10 μM
[2] = molecular target: T1, GABAAR(α1/β3/γ2); test: Whole-cell patch-clamp electrophysiology in GABAAR-transfected HEK293T cells; assay type: cell-based; conditions: for chloride currents in the absence of GABA at high concentrations: 100 μM for CGP-7930 and CGP-13501, 25 μM for vinpocetine, Retro-2 and YC-1
[3] = molecular target: T1, GABAAR(α1/β3/γ2); test: Dissociation constant of PAM at fixed 10 μM GABA; assay type: binding
[4] = molecular target: GABAARs; conditions: cited from earlier work
[5] = molecular target: T1, GABAAR(α1/β3/γ2); assay type: binding

Compound	assignment of hit compound from the screening [1]	Kd [3]	fluorescence change (ΔF/F0) upon ligand addition in the absence of GABA [1]	fluorescence change (ΔF/F0) upon ligand addition in the presence of GABA [1]	also measured
CC1=C(C)C(=O)C(CCCCC#CCCCC#CCO)=C(C)C1=O [AA-861]	PAM candidates				
CC(C)(CO)Cc1cc(C(C)(C)C)c(O)c(C(C)(C)C)c1 [CGP-7930, 2,6-Di-tert-butyl-4-(3-hydroxy-2,2-dimethyl-propyl)-phenol]	PAM candidates	13100 nM			chloride currents in the absence of GABA at high concentrations ([2]; no GABA): increased the chloride currents
CCOC(=O)c1cncn1[C@H](C)c1ccccc1 [etomidate]			negligible fluorescence change	pronounced fluorescent decrease	Kd ([4]; read-out: Kd of etomidate previously reported using live cells): 1800 nM
COc1ccc(-c2ccc(=N)n(CCCC(=O)O)n2)cc1 [gabazine]	potential orthosteric ligands		significant decrease	significant decrease	Kd [5]: 214 nM; concentration at which the fluorescence decrease reached saturation ([5]; 100 nM Gzn-OG, CLSM image): approximately 10 μM
COc1ccc2c(c1OC)C(=O)O[C@@H]2[C@H]1c2cc3c(cc2CCN1C)OCO3 [hydrastine]	potential orthosteric ligands				
CC(C)c1cccc(C(C)C)c1O [propofol]		5600 nM	negligible fluorescence change	pronounced fluorescent decrease	Kd ([4]; read-out: Kd of propofol previously reported using live cells): 1900 nM
CCOC(=O)C1=C[C@]2(CC)CCCN3CCc4c(n1c1ccccc41)[C@@H]32 [vinpocetine]	PAM candidates	1400 nM			chloride currents in the absence of GABA at high concentrations ([2]; no GABA): increased the chloride currents; effect on GABA-induced chloride currents ([2]; [compound] = 3 μM, [GABA] = 30 μM, −60 mV): reversibly enhanced; direct activation of GABAARs at low concentrations ([2]; low concentrations (3 μM), no GABA): did not induce any direct activation of GABAARs
Cc1ccc(-c2nc3ccc(C)cn3c2CC(=O)N(C)C)cc1 [zolpidem]			negligible fluorescence change	pronounced fluorescent decrease	
picrotoxin			no effect on the fluorescence intensity	no effect on the fluorescence intensity	

Source: paper PMC6764212 (ACS Central Science, 2019)
